This note sets out measurements from ChEMBL document CHEMBL1201862, “PubChem BioAssay data set” (2004).

Molecules are shown by their SMILES. Several values for one entry are separate records, joined by “and”; a condition that tells them apart may be missing. Equal values may be shown once.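 Compound exposure: 48 hours, 5 concentrations, 96-well plates. GI50 = concentration required for 50% inhibition of growth.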 Activity calls are given as the source filed them. No stated cut-off is given here; in the data, active = GI50 up to about 1.1 µM and inactive = higher.

Among the test systems are NCI-H226; UO-31; OVCAR-4; SK-MEL-2; HCT-116; HOP-62; HOP-92; KM12; SK-OV-3; OVCAR-8; U-251; BT-549; SF-295; SF-268; M14; PC-3; MDA-N; K562; IGROV-1; NCI-H522.
What all share (assay): growth of human tumour cells (NCI), 48 h

On to `CSc1scc2c1/C(=N/NC(N)=O)CCC2`, for which the GI50 in the assay with NCI-H226 was 22.4 µM (inactive); in the assay with UO-31, > 100 µM (inactive); with OVCAR-4, > 100 µM (inactive); in the assay with SK-MEL-2, > 100 µM (inactive); in the assay with HCT-116, 70 µM (inactive); with HOP-62, > 100 µM (inactive). For the same molecule, the GI50 in the assay on HOP-92 was 2.34 µM (inactive); with KM12 it was 86.1 µM (inactive); with SK-OV-3 it was > 100 µM (inactive); in the assay with OVCAR-8, > 100 µM (inactive); in the assay with U-251, > 100 µM (inactive); in the assay on BT-549, 80 µM (inactive). The GI50 in the assay with SF-295 is 60.5 µM (inactive); with SF-268, 38.5 µM (inactive); in the assay on M14 it was > 100 µM (inactive); in the assay with PC-3, 93.5 µM (inactive); in the assay with MDA-N it was 45.3 µM (inactive); in the assay with K562, > 100 µM (inactive).

As for `COC(=O)c1ccc(Oc2nc3ccc(C(F)(F)F)cc3nc2-c2ccccc2)cc1`, the GI50 with NCI-H226, in the assay with UO-31, with OVCAR-4, in the assay with HCT-116, in the assay with HOP-62 and in the assay on IGROV-1 was > 100 µM (inactive) in each case. Moreover, the GI50 in the assay with HOP-92, in the assay on KM12, in the assay with SK-OV-3, with OVCAR-8, in the assay on U-251 and in the assay with BT-549 was > 100 µM (inactive) in each case. Besides, the GI50 in the assay with SF-295 was > 100 µM (inactive); with SF-268, > 100 µM (inactive); with NCI-H522, 94.6 µM (inactive); in the assay on PC-3 it was > 100 µM (inactive); in the assay with MDA-N, > 100 µM (inactive); in the assay with K562, 60.8 µM (inactive).

In the case of `COc1ccc(-c2c(C#N)c(N)n(C3OCC(OC(C)=O)C(OC(C)=O)C3OC(C)=O)c(=S)c2C#N)cc1` (stereo not drawn), the GI50 in the assay with NCI-H226 is 82.8 µM (inactive) and 77.8 µM (inactive); in the assay on UO-31 it was 23.1 µM (inactive) and 22 µM (inactive); in the assay on OVCAR-4 it was 47.3 µM (inactive) and 48.3 µM (inactive); in the assay with SK-MEL-2, 22.3 µM (inactive) and 40.7 µM (inactive); in the assay on HCT-116 it was 41.1 µM (inactive) and 52.2 µM (inactive); in the assay on HOP-62 it was 40.9 µM (inactive) and 23.6 µM (inactive). The GI50 in the assay with IGROV-1 was 77.1 µM (inactive) and 63.4 µM (inactive); in the assay with HOP-92, 16.4 µM (inactive) and 11.8 µM (inactive); in the assay on KM12 it was 53.7 µM (inactive) and 50.1 µM (inactive); in the assay with SK-OV-3 it was 42.8 µM (inactive) and 24 µM (inactive); in the assay on OVCAR-8 it was 39.3 µM (inactive) and 21.8 µM (inactive); in the assay on U-251, 32.9 µM (inactive) and 54.5 µM (inactive). Besides, the GI50 with BT-549 is 20.7 µM (inactive) and 16.4 µM (inactive); with SF-295, 46.9 µM (inactive) and 71.4 µM (inactive); with SF-268, 31.4 µM (inactive); with M14, 53 µM (inactive) and 49.3 µM (inactive); with NCI-H522 it was 38.8 µM (inactive) and 53.3 µM (inactive); in the assay with PC-3, 32.9 µM (inactive) and 34.4 µM (inactive). Also, the GI50 with MDA-N is 43 µM (inactive) and 51.2 µM (inactive).

Turning to `CCc1c(Cc2cccc3ccccc23)n2c(nc1=O)SCC2OCCO` (stereo not drawn), the GI50 in the assay with NCI-H226 was > 100 µM (inactive); with UO-31 it was > 100 µM (inactive); in the assay with OVCAR-4, 41.5 µM (inactive); in the assay with SK-MEL-2 it was > 100 µM (inactive); in the assay on HCT-116, > 100 µM (inactive); in the assay with IGROV-1, 24.7 µM (inactive). Also, the GI50 was 0.328 µM (active) with HOP-92; 56.5 µM (inactive) in the assay on KM12; 33.1 µM (inactive) with OVCAR-8; 76.9 µM (inactive) in the assay on U-251; 41.7 µM (inactive) with BT-549; 55.7 µM (inactive) in the assay on SF-268. Further, the GI50 with M14 is > 100 µM (inactive); with NCI-H522, 49 µM (inactive); in the assay on PC-3, 52.6 µM (inactive); in the assay on MDA-N it was 40.8 µM (inactive); in the assay with K562, 30.4 µM (inactive).

On to `C=C(c1ccccc1)C1ON(C)CCc2cc(OC)c(OC)cc21` (stereo not drawn), for which the GI50 is > 100 µM (inactive) in the assay with NCI-H226; 81.5 µM (inactive) in the assay with UO-31; 43.4 µM (inactive) in the assay on HCT-116; > 100 µM (inactive) in the assay with HOP-62; > 100 µM (inactive) in the assay with IGROV-1; 34.4 µM (inactive) in the assay with HOP-92. Moreover, the GI50 is > 100 µM (inactive) in the assay on KM12; > 100 µM (inactive) with SK-OV-3; > 100 µM (inactive) with OVCAR-8; > 100 µM (inactive) in the assay on U-251; > 100 µM (inactive) in the assay on BT-549; 58.9 µM (inactive) in the assay on SF-295. Also, the GI50 in the assay on SF-268 was 49.2 µM (inactive); in the assay on M14 it was > 100 µM (inactive); in the assay on NCI-H522, 56.4 µM (inactive); with PC-3, > 100 µM (inactive); in the assay on MDA-N, > 100 µM (inactive); with K562 it was 58.7 µM (inactive).

As for `COc1cc(/C=C2\S/C(=N/Nc3nc(-c4ccc(Br)cc4)cs3)NC2=O)cc(OC)c1OC`, the GI50 with NCI-H226 is 4.09 µM (inactive); in the assay with UO-31, 3.91 µM (inactive); with OVCAR-4, 17.8 µM (inactive); in the assay on SK-MEL-2 it was 15.1 µM (inactive); in the assay on HCT-116, 4.49 µM (inactive); in the assay on HOP-62, 10.5 µM (inactive). The GI50 is 12 µM (inactive) in the assay with IGROV-1; 3.63 µM (inactive) in the assay with HOP-92; 7.73 µM (inactive) in the assay on KM12; 13 µM (inactive) in the assay on SK-OV-3; 14.5 µM (inactive) in the assay with OVCAR-8; 2.99 µM (inactive) in the assay on U-251. Further, the GI50 in the assay on BT-549 is 7.82 µM (inactive); with SF-295, 12.4 µM (inactive); in the assay on SF-268, 20 µM (inactive); in the assay on M14, 15.6 µM (inactive); with NCI-H522, 12.5 µM (inactive); in the assay on PC-3, 4.03 µM (inactive). Also, the GI50 with MDA-N is 17.4 µM (inactive).

For `CCCCCCCCCCCCC/C=C(/COCC[N+](C)(C)C)OC(C)=O.CCCCCCCCCCCCCC/C(=C/OCC[N+](C)(C)C)OC(C)=O`, the GI50 with NCI-H226 is 1.57 µM (inactive); with UO-31 it was 14.3 µM (inactive); in the assay on OVCAR-4, 1.95 µM (inactive); with HCT-116 it was 0.643 µM (active); with HOP-62, 1.65 µM (inactive); with IGROV-1, 1.69 µM (inactive). Further, the GI50 is 1.16 µM (inactive) with HOP-92; 1.46 µM (inactive) in the assay on KM12; 4.63 µM (inactive) with SK-OV-3; 0.944 µM (active) in the assay on OVCAR-8; 1.19 µM (inactive) in the assay with U-251; 1.45 µM (inactive) in the assay with BT-549. Further, the GI50 with SF-295 was 0.92 µM (active); in the assay with SF-268 it was 1.87 µM (inactive); in the assay with M14, 2.5 µM (inactive); in the assay on NCI-H522, 1.87 µM (inactive); in the assay with PC-3, 2.08 µM (inactive); in the assay with MDA-N it was 3.07 µM (inactive). Besides, in the assay on K562, the GI50 was 1.71 µM (inactive).

As to `Cc1n[nH]c(=O)n1C1CC1`, the GI50 in the assay on NCI-H226, with UO-31, in the assay with OVCAR-4, in the assay with HCT-116, with HOP-62 and with IGROV-1 was > 100 µM (inactive) in each case. Also, the GI50 with HOP-92 was > 100 µM (inactive); with KM12 it was > 100 µM (inactive); with SK-OV-3, > 100 µM (inactive); in the assay on OVCAR-8, > 100 µM (inactive); in the assay on U-251, > 100 µM (inactive); in the assay with BT-549, 0.0111 µM (active). In addition, the GI50 with SF-295, in the assay on SF-268, with M14, in the assay with NCI-H522, in the assay on PC-3 and in the assay with MDA-N was > 100 µM (inactive) each time. For the same molecule, the GI50 with K562 was > 100 µM (inactive).

With `Cc1ccnc2c1ccc1nc3ccccc3n12`, the GI50 was 18.4 µM (inactive) in the assay on NCI-H226; 30.6 µM (inactive) in the assay on UO-31; 37.8 µM (inactive) with OVCAR-4; > 100 µM (inactive) in the assay with SK-MEL-2; 28.1 µM (inactive) in the assay on HCT-116; 89.7 µM (inactive) in the assay with HOP-62. In addition, the GI50 in the assay with IGROV-1 is 25.5 µM (inactive); in the assay with HOP-92, 85.1 µM (inactive); in the assay on KM12 it was 22 µM (inactive); in the assay with OVCAR-8 it was 28.9 µM (inactive); in the assay on BT-549, 63.5 µM (inactive); with SF-295, 87.7 µM (inactive). Further, the GI50 in the assay with SF-268 was 25.1 µM (inactive); in the assay with M14, > 100 µM (inactive); in the assay with NCI-H522 it was 17.9 µM (inactive); in the assay with PC-3, > 100 µM (inactive); in the assay on MDA-N it was > 100 µM (inactive); with K562 it was > 100 µM (inactive).

As to `CCOC(=O)/C(=C\c1ccc(CO)o1)P(=O)(OCC)OCC`, the GI50 in the assay on NCI-H226 was > 100 µM (inactive); in the assay on OVCAR-4, 19.9 µM (inactive); in the assay on SK-MEL-2 it was 25.2 µM (inactive); in the assay on HCT-116, 24.4 µM (inactive); with HOP-62, 45.8 µM (inactive); with IGROV-1 it was 37.2 µM (inactive). Moreover, the GI50 was 23.7 µM (inactive) with HOP-92; 33.3 µM (inactive) in the assay with KM12; 68.5 µM (inactive) in the assay with SK-OV-3; > 10 µM (inactive) in the assay on OVCAR-8; 42.4 µM (inactive) with U-251; 20.1 µM (inactive) in the assay with BT-549. In addition, the GI50 with SF-295 is > 100 µM (inactive); with SF-268 it was 28.2 µM (inactive); with M14, 31.9 µM (inactive); with NCI-H522, 3.88 µM (inactive); in the assay with PC-3, 5.43 µM (inactive); in the assay on MDA-N, 22.8 µM (inactive).
